Experimental data from PubChem BioAssay AID248 (DTP/NCI, 2004).
Where “and” joins values, the source holds several entries; their conditions need not be identical. Identical values can stand only once. Inconclusive results and toxic doses are left out. No stated cut-off is given here; in the data, active means T/C of 150% or more; inactive means T/C below 125%.

Test system: L1210 leukemia ip in BDF1 mice, survival T/C
Test: NCI In Vivo Anticancer Drug Screen. Data for tumor model L1210 Leukemia (intraperitoneal) in B6D2F1 (BDF1) mice
Details: endpoint: mean survival time, higher = longer survival
Outline: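 Ratio derived from survival: compound-dosed mice over vehicle-dosed mice, all bearing a transplantable tumor.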

[1] = dose: 100.0 mg/kg/injection, schedule: Q01DX005 (ip), vehicle: saline
[2] = dose: 200.0 mg/kg/injection, schedule: Q01DX005 (ip), vehicle: saline
[3] = dose: 50.0 mg/kg/injection, schedule: Q01DX001 (ip), vehicle: carboxymethylcellulose (CMC)
[4] = dose: 100.0 mg/kg/injection, schedule: Q01DX001 (ip), vehicle: carboxymethylcellulose (CMC)
[5] = dose: 200.0 mg/kg/injection, schedule: Q01DX001 (ip), vehicle: carboxymethylcellulose (CMC)
[6] = dose: 400.0 mg/kg/injection, schedule: Q01DX001 (ip), vehicle: carboxymethylcellulose (CMC)
[7] = dose: 100.0 mg/kg/injection, schedule: Q01DX001 (ip), vehicle: saline with Tween-80
[8] = dose: 200.0 mg/kg/injection, schedule: Q01DX001 (ip), vehicle: saline with Tween-80
[9] = dose: 25.0 mg/kg/injection, schedule: Q04DX003 (ip), vehicle: Klucel (hydroxypropylcellulose) (HPC)
[10] = dose: 50.0 mg/kg/injection, schedule: Q04DX003 (ip), vehicle: Klucel (hydroxypropylcellulose) (HPC)
[11] = dose: 100.0 mg/kg/injection, schedule: Q04DX003 (ip), vehicle: Klucel (hydroxypropylcellulose) (HPC)
[12] = dose: 100.0 mg/kg/injection, schedule: Q01DX009 (ip), vehicle: saline with Tween-80
[13] = dose: 100.0 mg/kg/injection, schedule: Q04DX002 (ip), vehicle: saline with Tween-80
[14] = dose: 200.0 mg/kg/injection, schedule: Q01DX009 (ip), vehicle: saline with Tween-80
[15] = dose: 200.0 mg/kg/injection, schedule: Q04DX002 (ip), vehicle: saline with Tween-80
[16] = dose: 400.0 mg/kg/injection, schedule: Q01DX009 (ip), vehicle: saline with Tween-80
[17] = dose: 400.0 mg/kg/injection, schedule: Q04DX002 (ip), vehicle: saline with Tween-80
[18] = dose: 100.0 mg/kg/injection, schedule: Q01DX009 (ip), vehicle: saline
[19] = dose: 200.0 mg/kg/injection, schedule: Q01DX009 (ip), vehicle: saline
[20] = dose: 50.0 mg/kg/injection, schedule: Q01DX009 (ip), vehicle: saline with Tween-80
[21] = dose: 100.0 mg/kg/injection, schedule: Q04DX003 (ip), vehicle: saline with Tween-80
[22] = dose: 200.0 mg/kg/injection, schedule: Q04DX003 (ip), vehicle: saline with Tween-80
[23] = dose: 400.0 mg/kg/injection, schedule: Q04DX003 (ip), vehicle: saline with Tween-80
[24] = dose: 100.0 mg/kg/injection, schedule: Q01DX009 (ip), vehicle: Klucel (hydroxypropylcellulose) (HPC)
[25] = dose: 200.0 mg/kg/injection, schedule: Q01DX009 (ip), vehicle: Klucel (hydroxypropylcellulose) (HPC)
[26] = dose: 200.0 mg/kg/injection, schedule: Q04DX003 (ip), vehicle: Klucel (hydroxypropylcellulose) (HPC)
[27] = dose: 400.0 mg/kg/injection, schedule: Q01DX009 (ip), vehicle: Klucel (hydroxypropylcellulose) (HPC)
[28] = dose: 400.0 mg/kg/injection, schedule: Q04DX003 (ip), vehicle: Klucel (hydroxypropylcellulose) (HPC)

Measured: T/C

CC(C)=CCNc1ncnc2c1c(C#N)cn2C1OC(CO)C(O)C1O (configuration not stated)
inactive: dose: 0.78 mg/kg/injection, schedule: Q01DX009 (ip), vehicle: saline 95 % of control | dose: 1.56 mg/kg/injection, schedule: Q01DX005 (ip), vehicle: saline 106 % of control | dose: 1.56 mg/kg/injection, schedule: Q01DX009 (ip), vehicle: saline 95 % of control | dose: 3.12 mg/kg/injection, schedule: Q01DX009 (ip), vehicle: saline 97 % of control

CC(=O)OCC1OC(n2cnc(C(N)=O)c2N)C(OC(C)=O)C1OC(C)=O (configuration not stated)
inactive: [1] 95 % of control | [2] 96 % of control

O=C1NC(=S)S/C1=C\c1ccncc1
inactive: [3] 94 % of control | [4] 89 % of control | [5] 92 % of control | [6] 99 % of control

CCCCCCCCCCCCCCCCC(CCCCCCCCCCCCCCCC)C1CCCCC1
inactive: [7] 94 % of control | [8] 94 % of control | dose: 400.0 mg/kg/injection, schedule: Q01DX001 (ip), vehicle: saline with Tween-80 90 % of control

CC(C)(C#N)c1ccnc2ccccc12
inactive: dose: 12.5 mg/kg/injection, schedule: Q01DX009 (ip), vehicle: Klucel (hydroxypropylcellulose) (HPC) 89 % of control | dose: 25.0 mg/kg/injection, schedule: Q01DX009 (ip), vehicle: Klucel (hydroxypropylcellulose) (HPC) 100 % of control | [9] 104 % of control | [10] 96 % of control | [11] 96 % of control

CN(C)Cc1ccccc1CO
inactive: dose: 75.0 mg/kg/injection, schedule: Q04DX002 (ip), vehicle: Klucel (hydroxypropylcellulose) (HPC) 101 % of control | dose: 150.0 mg/kg/injection, schedule: Q04DX002 (ip), vehicle: Klucel (hydroxypropylcellulose) (HPC) 90 % of control | dose: 300.0 mg/kg/injection, schedule: Q04DX002 (ip), vehicle: Klucel (hydroxypropylcellulose) (HPC) 97 % of control

C=CCN1CCC(C(=O)OC)(c2ccccc2)CC1
inactive: dose: 100.0 mg/kg/injection, schedule: Q04DX003 (ip), vehicle: saline 96 % of control | dose: 200.0 mg/kg/injection, schedule: Q04DX003 (ip), vehicle: saline 103 % of control

COc1ccc(Cl)cc1NC(=O)/C=C/c1ccccc1
inactive: [7] 95 % of control | [12] 89 % of control | [13] 98 % of control and 90 % of control | [8] 92 % of control | [14] 95 % of control and 89 % of control | [15] 96 % of control and 91 % of control | [16] 92 % of control | [17] 94 % of control and 86 % of control

NC(=O)CS
inactive: dose: 100.0 mg/kg/injection, schedule: Q01DX001 (ip), vehicle: saline 96 % of control | dose: 200.0 mg/kg/injection, schedule: Q01DX001 (ip), vehicle: saline 105 % of control

CCSC1C(OC(C)=O)C(C(COC(C)=O)OC(C)=O)OC1n1cnc2c(Cl)nc(Cl)nc21 (configuration not stated)
inactive: [1] 109 % of control | [2] 109 % of control

O=C(OCCC/C(=C\c1cc2ccccc2c2ccccc12)[N+](=O)[O-])c1ccccc1
inactive: dose: 100.0 mg/kg/injection, schedule: Q01DX001 (ip), vehicle: other 87 % of control | dose: 200.0 mg/kg/injection, schedule: Q01DX001 (ip), vehicle: other 92 % of control | dose: 400.0 mg/kg/injection, schedule: Q01DX001 (ip), vehicle: other 91 % of control

O=[N+]([O-])c1ccc(NCc2ccccc2)c2nonc12
inactive: dose: 50.0 mg/kg/injection, schedule: Q01DX009 (ip), vehicle: saline 113 % of control | [18] 98 % of control | [19] 113 % of control

CC(C)(C)NC(=O)Oc1ccccc1C(=O)Nc1ccccc1
inactive: [20] 97 % of control and 103 % of control | [13] 101 % of control and 103 % of control | [15] 95 % of control and 98 % of control | [17] 92 % of control

CC(C)(C)C(=O)CC(=O)C(C)(C)C.CC(C)(C)C(=O)CC(=O)C(C)(C)C.CC(C)(C)C(=O)CC(=O)C(C)(C)C.[Ho]
inactive: [21] 94 % of control | [22] 105 % of control | [23] 95 % of control

NC(=O)c1ccc[n+]([O-])c1
inactive: [24] 104 % of control | [11] 100 % of control | [25] 100 % of control | [26] 100 % of control | [27] 98 % of control | [28] 94 % of control

O=[N+]([O-])c1ccc(Cl)c(OCCCCOc2ccc(S(=O)(=O)F)cc2)c1
inactive: [11] 90 % of control | [26] 94 % of control

CN1C2CCC1CC(OC(=O)c1ccc(O)cc1)C2 (configuration not stated)
inactive: dose: 9.38 mg/kg/injection, schedule: Q01DX001 (ip), vehicle: saline 94 % of control | dose: 18.75 mg/kg/injection, schedule: Q01DX001 (ip), vehicle: saline 102 % of control

N/C(=N\Cl)C(Cl)(Cl)Cl
inactive: dose: 12.5 mg/kg/injection, schedule: Q04DX003 (ip), vehicle: saline with Tween-80 103 % of control | dose: 25.0 mg/kg/injection, schedule: Q04DX003 (ip), vehicle: saline with Tween-80 103 % of control | dose: 50.0 mg/kg/injection, schedule: Q04DX003 (ip), vehicle: saline with Tween-80 103 % of control

Nc1ncnc2c1ncn2C1OC(COP(=O)(O)O)C(O)C1OCc1ccccc1 (configuration not stated)
inactive: [1] 112 % of control | [2] 95 % of control

CCOC1C=CC(OC(C)=O)C(COC(C)=O)O1 (configuration not stated)
inactive: [24] 108 % of control | [11] 96 % of control | [25] 100 % of control | [26] 96 % of control | [27] 104 % of control | [28] 94 % of control

COc1ccccc1N=Nc1c(O)n(-c2ccccc2C)c(=S)n(-c2ccccc2)c1=O
inactive: [9] 107 % of control | [10] 105 % of control | dose: 100.0 mg/kg/injection, schedule: Q01DX001 (ip), vehicle: Klucel (hydroxypropylcellulose) (HPC) 101 % of control | [11] 107 % of control | dose: 200.0 mg/kg/injection, schedule: Q01DX001 (ip), vehicle: Klucel (hydroxypropylcellulose) (HPC) 95 % of control

COC1=C(OC)C(=O)C(Sc2ccc3ccccc3c2)=CC1=O
inactive: dose: 6.25 mg/kg/injection, schedule: Q01DX009 (ip), vehicle: saline with Tween-80 100 % of control | dose: 12.5 mg/kg/injection, schedule: Q01DX009 (ip), vehicle: saline with Tween-80 94 % of control | dose: 25.0 mg/kg/injection, schedule: Q01DX009 (ip), vehicle: saline with Tween-80 100 % of control | [20] 96 % of control | [12] 94 % of control

CCc1c(O)nc2ccccn2c1=O
inactive: [4] 98 % of control | [5] 109 % of control | [6] 113 % of control

O=Cc1cccs1
inactive: [12] 104 % of control | [13] 93 % of control | [14] 107 % of control | [15] 100 % of control | [16] 118 % of control | [17] 96 % of control

N#Cc1ccc[n+]([O-])c1
inactive: [21] 100 % of control | [22] 101 % of control | [23] 97 % of control

C#CCCCCC#[C][Hg][C]#CCCCCC#C
inactive: dose: 75.0 mg/kg/injection, schedule: Q01DX001 (ip), vehicle: saline 94 % of control

CSc1nn2c(SC)nnc2s1
inactive: [3] 104 % of control | [4] 101 % of control | [5] 120 % of control

O=[As](O)(O)c1ccc(OCCO)cc1
inactive: [18] 96 % of control | [19] 96 % of control
